According to the supplement of paper PMC12350171:

Legend:
[1] = system: Com21 synthetic gut community; assay: community biomass OD578 after 24 h drug treatment relative to untreated (fraction of untreated control); higher = more community growth; settings: community: Com21 (Com20 + E. coli ED1a)
Method: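 Com21 (Com20 plus E. coli ED1a) was treated with drug for 24 h under anaerobic conditions in mGAM. Community OD578 was then measured and normalised to untreated Com21; mean of 3 biological replicates.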

[2] = system: Shigella flexneri; assay: IC25 growth inhibition; higher = less potent
Procedure, shortened: (§1)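 Under anaerobic conditions, OD578 was read hourly in a plate reader for at least three biological replicates of monocultures grown overnight in mGAM. Each culture started at an OD578 of 0.01 in pre-reduced plates holding twofold drug dilutions and 1% DMSO (or water). IC25 was reported as a tested interval: the lowest concentration where the monotonic median area under the growth curve dropped below the cutoff. That cutoff was 0.75.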

[3] = system: Bacteroides fragilis NT; assay: IC25 growth inhibition; higher = less potent
Procedure, shortened: as §1

[4] = system: Yersinia pseudotuberculosis; assay: IC25 growth inhibition; higher = less potent
Procedure, shortened: as §1

[5] = system: Collinsella aerofaciens; assay: IC25 growth inhibition; higher = less potent
Procedure, shortened: as §1

[6] = system: Coprococcus comes; assay: IC25 growth inhibition; higher = less potent
Procedure, shortened: as §1

[7] = system: Clostridium saccharolyticum; assay: IC25 growth inhibition; higher = less potent
Procedure, shortened: as §1

[8] = system: Clostridium ramosum; assay: IC25 growth inhibition; higher = less potent
Procedure, shortened: as §1

[9] = system: Fusobacterium nucleatum subsp. Nucleatum; assay: IC25 growth inhibition; higher = less potent
Procedure, shortened: as §1

[10] = system: Bacteroides uniformis; assay: IC25 growth inhibition; higher = less potent
Procedure, shortened: as §1

[11] = system: Streptococcus parasanguinis; assay: IC25 growth inhibition; higher = less potent
Procedure, shortened: as §1

[12] = system: Parabacteroides merdae; assay: IC25 growth inhibition; higher = less potent
Procedure, shortened: as §1

[13] = system: Escherichia coli ED1a; assay: IC25 growth inhibition; higher = less potent
Procedure, shortened: as §1

[14] = system: Salmonella enterica typhimurium; assay: IC25 growth inhibition; higher = less potent
Procedure, shortened: as §1

[15] = system: Eubacterium rectale; assay: IC25 growth inhibition; higher = less potent
Procedure, shortened: as §1

[16] = system: Clostridium bolteae; assay: IC25 growth inhibition; higher = less potent
Procedure, shortened: as §1

[17] = system: Vibrio cholerae; assay: IC25 growth inhibition; higher = less potent
Procedure, shortened: as §1

[18] = system: Yersinia enterocolitica WA-314; assay: IC25 growth inhibition; higher = less potent
Procedure, shortened: as §1

[19] = system: Dorea formicigenerans; assay: IC25 growth inhibition; higher = less potent
Procedure, shortened: as §1

[20] = system: Roseburia intestinalis; assay: IC25 growth inhibition; higher = less potent
Procedure, shortened: as §1

[21] = system: Streptococcus salivarius; assay: IC25 growth inhibition; higher = less potent
Procedure, shortened: as §1

[22] = system: Bacteroides vulgatus; assay: IC25 growth inhibition; higher = less potent
Procedure, shortened: as §1

[23] = system: Ruminococcus gnavus; assay: IC25 growth inhibition; higher = less potent
Procedure, shortened: as §1

[24] = system: Clostridium perfringens; assay: IC25 growth inhibition; higher = less potent
Procedure, shortened: as §1

[25] = system: Bacteroides thetaiotaomicron; assay: IC25 growth inhibition; higher = less potent
Procedure, shortened: as §1

[26] = drug pretreatment concentration 10 µM
[27] = drug pretreatment concentration 20 µM
[28] = drug pretreatment concentration 40 µM
[29] = drug pretreatment concentration 80 µM
[30] = drug pretreatment concentration 160 µM
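Wherever IC25 growth inhibition is given: lowest concentration where monotonic median growth AUC falls below 0.75 of drug-free control.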

Row | Compound | community biomass OD578 [1, 26] | community biomass OD578 [1, 27] | community biomass OD578 [1, 28] | community biomass OD578 [1, 29] | community biomass OD578 [1, 30] | IC25 growth inhibition [2] | IC25 growth inhibition [3] | IC25 growth inhibition [4] | IC25 growth inhibition [5] | IC25 growth inhibition [6] | IC25 growth inhibition [7] | IC25 growth inhibition [8] | IC25 growth inhibition [9] | IC25 growth inhibition [10] | IC25 growth inhibition [11] | IC25 growth inhibition [12] | IC25 growth inhibition [13] | IC25 growth inhibition [14] | IC25 growth inhibition [15] | IC25 growth inhibition [16] | IC25 growth inhibition [17] | IC25 growth inhibition [18] | IC25 growth inhibition [19] | IC25 growth inhibition [20] | IC25 growth inhibition [21] | IC25 growth inhibition [22] | IC25 growth inhibition [23] | IC25 growth inhibition [24] | IC25 growth inhibition [25] | community biomass OD578 ([1]; drug pretreatment concentration 2.5 µM) | community biomass OD578 ([1]; drug pretreatment concentration 5 µM)
1 | CCCc1nc2c(C)cc(-c3nc4ccccc4n3C)cc2n1Cc1ccc(-c2ccccc2C(=O)O)cc1 [Telmisartan] | 0.994 | 0.966 | 0.932 | 0.892 | 0.956 | > 40 µM | > 160 µM | > 40 µM | > 160 µM | > 80 µM | > 80 µM | ≤ 40 µM | > 80 µM | > 160 µM | > 160 µM | > 160 µM | > 160 µM | > 160 µM | > 80 µM | > 80 µM | > 40 µM | > 40 µM | > 80 µM | > 160 µM | ≤ 40 µM | > 160 µM | > 160 µM | > 160 µM | > 160 µM | – | –
2 | CC(C)(C)c1ccc(C(O)CCCN2CCC(C(O)(c3ccccc3)c3ccccc3)CC2)cc1 (stereo not drawn) [Terfenadine] | 0.953 | 0.96 | 0.863 | 0.542 | 0.35 | > 80 µM | ≤ 80 µM | > 80 µM | ≤ 20 µM | ≤ 80 µM | ≤ 40 µM | > 80 µM | ≤ 80 µM | ≤ 80 µM | ≤ 80 µM | ≤ 80 µM | > 160 µM | > 160 µM | ≤ 80 µM | ≤ 80 µM | > 40 µM | > 40 µM | ≤ 20 µM | ≤ 10 µM | ≤ 80 µM | ≤ 40 µM | ≤ 20 µM | ≤ 80 µM | ≤ 80 µM | – | –
3 | Nc1nc(=S)c2ncn([C@@H]3O[C@H](CO)[C@@H](O)[C@H]3O)c2[nH]1 [Thioguanosine] | 1.02 | 1.05 | 1.01 | – | – | ≤ 2.5 µM | > 40 µM | ≤ 20 µM | > 40 µM | > 40 µM | > 40 µM | > 40 µM | > 40 µM | > 40 µM | > 40 µM | > 40 µM | ≤ 2.5 µM | > 40 µM | > 40 µM | > 40 µM | > 40 µM | > 40 µM | > 40 µM | > 40 µM | > 40 µM | > 40 µM | > 40 µM | > 40 µM | > 40 µM | 1.01 | 1.01
4 | NC[C@H]1O[C@H](O[C@H]2[C@H](O)[C@@H](O[C@H]3O[C@H](CO)[C@@H](O)[C@H](N)[C@H]3O)[C@H](N)C[C@@H]2N)[C@H](N)C[C@@H]1O [Tobramycin] | 1.01 | 0.969 | 0.972 | 0.983 | 0.992 | ≤ 40 µM | > 160 µM | ≤ 20 µM | ≤ 10 µM | ≤ 40 µM | ≤ 10 µM | ≤ 160 µM | ≤ 80 µM | > 160 µM | ≤ 5 µM | > 160 µM | ≤ 20 µM | ≤ 160 µM | ≤ 20 µM | > 160 µM | ≤ 160 µM | ≤ 40 µM | > 160 µM | ≤ 10 µM | ≤ 5 µM | > 160 µM | ≤ 40 µM | ≤ 20 µM | > 160 µM | – | –
5 | Cc1c(Cl)cccc1Nc1ccccc1C(=O)O [Tolfenamic acid] | 0.991 | 0.971 | 0.962 | 0.923 | 0.864 | > 160 µM | ≤ 80 µM | > 160 µM | > 160 µM | ≤ 80 µM | ≤ 160 µM | ≤ 80 µM | ≤ 40 µM | ≤ 160 µM | > 160 µM | ≤ 40 µM | > 160 µM | > 160 µM | > 160 µM | > 160 µM | ≤ 80 µM | > 160 µM | > 160 µM | > 160 µM | ≤ 160 µM | ≤ 80 µM | ≤ 80 µM | ≤ 160 µM | ≤ 160 µM | – | –
6 | CCOC1O[C@H]([C@@H](COCc2ccccc2)OCc2ccccc2)[C@H](OCc2ccccc2)[C@H]1O (stereo partly drawn) [Tribenoside] | 0.995 | 0.955 | 0.976 | 0.945 | 0.947 | > 40 µM | > 40 µM | > 40 µM | > 40 µM | > 40 µM | > 80 µM | > 40 µM | > 40 µM | > 40 µM | > 40 µM | > 40 µM | > 20 µM | > 40 µM | > 40 µM | > 80 µM | > 40 µM | ≤ 160 µM | > 20 µM | > 80 µM | > 80 µM | > 40 µM | > 40 µM | > 80 µM | > 40 µM | – | –
7 | COc1cc(C(=O)NS(=O)(=O)c2ccccc2C)ccc1Cc1cn(C)c2ccc(NC(=O)OC3CCCC3)cc12 [Zafirlukast] | 0.904 | 0.876 | 0.825 | 0.81 | 0.841 | > 160 µM | ≤ 80 µM | > 80 µM | ≤ 80 µM | ≤ 20 µM | ≤ 80 µM | ≤ 10 µM | > 80 µM | ≤ 80 µM | ≤ 20 µM | ≤ 40 µM | > 160 µM | > 80 µM | ≤ 80 µM | ≤ 80 µM | > 80 µM | > 80 µM | ≤ 40 µM | ≤ 20 µM | ≤ 10 µM | ≤ 40 µM | ≤ 20 µM | ≤ 10 µM | ≤ 80 µM | – | –
